From patent publication US6407109B1, “Pyrrolyl tetrahydroquinoxalin diones, their production and use in the treatment of diseases” (Abbott Laboratories, priority 1995, dated 2002)

system: AMPA receptor; test: Binding of 3H-AMPA to rat cerebral membrane material; settings: compared with 1-(ethoxycarbonylmethyl)-7-(3-formyl-1-pyrrolyl)-6-nitroquinoxaline-2,3(1H,4H)-dione
Procedure: The pharmacological activity of the compounds I was investigated on isolated membrane material from rat cerebra. For this purpose, the membrane material was treated in the presence of the compounds according to the invention with the radiolabeled substance ^3H-2-amino-3-hydroxy-5-methyl-4-isoxazolepropionic acid (^3H-AMPA), [^3H]-glycine or [^3H]-kainate which bind to specific receptors (AMPA, NMDA or kainate receptors). The radioactivity of the treated membranes was then measured by scintillation counting. It was possible to determine from the bound radioactivity the amounts of bound ^3H-AMPA, [^3H]-glycine or [^3H]-kainate, or in each case the displaced amounts of these radiolabeled substances. […]
To prepare the membrane material, freshly removed rat cerebra were homogenized together with 15 times the volume of a buffer solution A composed of 30 mM tris(hydroxymethyl)methylamine hydrochloride (TRIS-HCl) and 0.5 mM ethylenediaminetetraacetic acid (EDTA), pH 7.4, using an Ultra-Turrax^R. The suspension was centrifuged at 48000 g for 20 min. […] After measurement of the radioactivity of the bound ^3H-AMPA in the membrane material by scintillation counting, the KI was determined by regression analysis of the displacement plots.

Row | activity in 3H-AMPA binding relative to the closely related aldehyde (Example 80 in EP 572 852) | Compound
1 | distinctly more active | CCOC(=O)Cn1c(=O)c(=O)[nH]c2cc([N+](=O)[O-])c(-n3ccc(C(=O)O)c3)cc21 [Example 2, 7-(3-Carboxy-1-pyrrolyl)-1-(ethoxycarbonylmethyl)-6-nitroquin-oxaline-2,3(1H,4H)-dione]

same assay, conditions: isolated membrane material from rat cerebra, 3H-AMPA, incubated on ice for 60 min; read-out: kI (dissociation constant, displacement of 3H-AMPA)

Row | Ki [µM] | Compound
2 | < 10 | CCOC(=O)Cn1c(=O)c(=O)[nH]c2cc([N+](=O)[O-])c(-n3ccc(C(=O)O)c3)cc21 [Example 2, 7-(3-Carboxy-1-pyrrolyl)-1-(ethoxycarbonylmethyl)-6-nitroquin-oxaline-2,3(1H,4H)-dione]

system: not given; test: not given; settings: not given

Row | melting point | Compound
3 | > 300 °C | CCOC(=O)Cn1c(=O)c(=O)[nH]c2cc([N+](=O)[O-])c(-n3ccc(C(=O)NCc4ccc([N+](=O)[O-])cc4)c3)cc21
4 | > 210 °C (dec.) | O=C(O)Cn1c(=O)c(=O)[nH]c2cc([N+](=O)[O-])c(-n3ccc(C(=O)NCc4ccc([N+](=O)[O-])cc4)c3)cc21
5 | 223 °C (dec.) | CCOC(=O)Cn1c(=O)c(=O)[nH]c2cc([N+](=O)[O-])c(-n3ccc(C(=O)NCc4ccccc4)c3)cc21 [Example 8, 7-(3-Benzylcarbamoyl-1-pyrrolyl)-1-ethoxycarbonylmethyl-6-nitro-quinoxaline-2,3(1H,4H)-dione]
6 | > 300 °C | CCOC(=O)Cn1c(=O)c(=O)[nH]c2cc([N+](=O)[O-])c(-n3ccc(C(=O)NCc4ccncc4)c3)cc21 [Example 11, 1-Ethoxycarbonylmethyl-6-nitro-7-(3-(4-pyridinylmethylcarbamoyl)-1-pyrrolyl)quinoxaline-2,3(1H,4H)-dione]
7 | > 300 °C | O=C(O)Cn1c(=O)c(=O)[nH]c2cc([N+](=O)[O-])c(-n3ccc(C(=O)NCc4ccncc4)c3)cc21 [Example 22, 1-Carboxymethyl-6-nitro-7-(3-(4-pyridinylmethylcarbamoyl)-1-pyrrolyl)quinoxaline-2,3(1H,4H)-dione]

Continued, compound first:

Row | Compound | melting point
8 | CCOC(=O)Cn1c(=O)c(=O)[nH]c2ccc3ccc(-n4ccc(C(=O)O)c4)cc3c21 [Example 3, 9-(3-Carboxy-1-pyrrolyl)-1-(ethoxycarbonylmethyl)benzo[f]-quinoxaline-2,3(1H,4H)-dione] | 292 to 295 °C
9 | O=C(O)Cn1c(=O)c(=O)[nH]c2ccc3c(-n4ccc(C(=O)O)c4)cccc3c21 [Example 15, 1-Carboxymethyl-7-(3-carboxy-1-pyrrolyl)benzo[f]quinoxaline-2,3(1H, 4H)-dione] | > 300 °C
10 | O=C(O)Cn1c(=O)c(=O)[nH]c2cc([N+](=O)[O-])c(-n3ccc(C(=O)N4CCN(CCc5ccccc5)CC4)c3)cc21 [Example 20, 1-Carboxymethyl-6-nitro-7-(3-(4-(2-phenylethyl)-1-piperazinyl-carbonyl)-1-pyrrolyl)quinoxaline-2,3(1H, 4H)-dione] | > 250 °C (dec.)
11 | O=C(O)Cn1c(=O)c(=O)[nH]c2cc([N+](=O)[O-])c(-n3ccc(C(=O)NCCCc4ccccc4)c3)cc21 [Example 21, 1-Carboxymethyl-6-nitro-7-(3-(3-phenylpropylcarbamoyl)-1-pyrrolyl)quinoxaline-2,3(1H,4H)-dione] | 224 to 227 °C (dec.)
